Key:
[1] = system: release of APPs produced by α-secretase; experiment: release of APPs in the culture medium of neuroblastoma cell line SH-SY5Y; format: cell-based; details: 10 μM; APPs secreted in culture medium of SH-SY5Y; controls = 100
Experimental: It is in fact known that proteolytic cleavage of Alzheimer Precursor Protein (APP) is mediated both by β- and γ-secretase, inducing an increased production of amyloid peptide Ab1-42 (which also plays a central role in the appearance of Alzheimer's disease), and […], giving raise to soluble APPs which have no pathogenic activity (Eslr W. P., Wolfe M. S., Science, 293, 1449-54, 2001).
The effect of the compounds of the invention on the release of APPs produced by α-secretase was evaluated in the culture medium of a neuroblastoma cell line (SH-SY5Y) according to the procedure described by Galbete J. L. et al. in Biochem J. 348, 307-313, 2000.

[2] = usual extraction and storage conditions; cited from earlier work

8-chlorooctahydrohyperforin gave an APPs % [1] of 855%.

With `CC(C)=CCC[C@]1(C)[C@@H](CC=C(C)C)C[C@]2(CC=C(C)C)C(=O)C(Cl)(CC=C(C)C)C(=O)[C@@]1(C(=O)C(C)C)C2=O` (stereo partly shown) [Chlorohyperforin, 8-chlorohyperforin] the APPs % [1] was 627%.

For `CC(C)=CCC[C@]1(C)[C@@H](CC=C(C)C)C[C@@]2(CC=C(C)C)C(=O)[C@]1(C(=O)C(C)C)C(=O)C(CC=C(C)C)=C2O` [Hyperforin], the APPs % [1] is given as 296% and the “stability (in words)” value [2] is given as “poorly stable”.

Source: patent publication US20050222274A1 (priority 2002, published 2005)
